Measured values published in patent US10081624B2, “Heterocyclic compound” (Takeda Pharmaceutical Company Limited, priority 2014, dated 2018).

Legend:
[1] = biological target: T1, HDAC6 enzyme (Homo sapiens, UniProt Q9UBN7); test: HDAC6 enzyme inhibitory assay (HDAC-Glo I/II Assay kit); format: biochemical; details: 1 μM test compound; for inhibition at 1 µM: read-out: HDAC6 inhibitory rate (%) (1 μM)
T1 construct: prepared by transducing full length HDAC1 and HDAC6 genes into Sf-9 insect cells; GST; purchased SignalChem; host or cells: Sf-9 insect cells
T1 sequence (Q9UBN7 1-1215): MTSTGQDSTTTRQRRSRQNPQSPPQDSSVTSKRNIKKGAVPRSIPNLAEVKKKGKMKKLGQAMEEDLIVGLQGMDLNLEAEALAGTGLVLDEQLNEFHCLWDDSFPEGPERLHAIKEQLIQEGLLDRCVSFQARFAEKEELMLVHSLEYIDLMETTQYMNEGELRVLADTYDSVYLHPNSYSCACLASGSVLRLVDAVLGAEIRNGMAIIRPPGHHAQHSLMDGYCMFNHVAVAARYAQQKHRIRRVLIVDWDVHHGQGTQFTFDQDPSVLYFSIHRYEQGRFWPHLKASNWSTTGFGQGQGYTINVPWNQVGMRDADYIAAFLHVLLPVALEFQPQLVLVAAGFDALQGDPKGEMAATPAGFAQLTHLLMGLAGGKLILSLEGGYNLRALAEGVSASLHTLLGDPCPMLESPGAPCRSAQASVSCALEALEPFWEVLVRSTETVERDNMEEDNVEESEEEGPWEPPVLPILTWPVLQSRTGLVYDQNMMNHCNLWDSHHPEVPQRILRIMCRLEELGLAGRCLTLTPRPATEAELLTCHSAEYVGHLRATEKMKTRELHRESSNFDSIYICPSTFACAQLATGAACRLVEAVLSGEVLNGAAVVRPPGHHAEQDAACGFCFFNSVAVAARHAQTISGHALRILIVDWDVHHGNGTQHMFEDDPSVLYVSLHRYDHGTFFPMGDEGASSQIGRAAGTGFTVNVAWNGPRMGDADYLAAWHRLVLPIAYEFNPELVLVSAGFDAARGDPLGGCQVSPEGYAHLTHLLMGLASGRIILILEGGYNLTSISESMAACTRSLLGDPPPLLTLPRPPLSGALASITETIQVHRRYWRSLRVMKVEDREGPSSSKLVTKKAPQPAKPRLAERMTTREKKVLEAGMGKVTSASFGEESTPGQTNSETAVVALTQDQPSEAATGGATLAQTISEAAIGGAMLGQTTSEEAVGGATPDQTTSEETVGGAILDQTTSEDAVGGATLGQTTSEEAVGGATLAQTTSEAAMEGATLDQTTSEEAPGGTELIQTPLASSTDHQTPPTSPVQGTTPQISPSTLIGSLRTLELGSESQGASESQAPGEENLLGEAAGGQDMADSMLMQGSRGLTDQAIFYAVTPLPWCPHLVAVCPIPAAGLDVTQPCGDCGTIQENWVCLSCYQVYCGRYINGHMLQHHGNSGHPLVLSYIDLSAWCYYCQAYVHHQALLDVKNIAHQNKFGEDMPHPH
Method in brief: (§1)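 Luminescence read-out: 20 min after adding HDAC-Glo substrate-developer at room temperature. Before that, compound and Sf-9-expressed, GST-purified full-length HDAC1 or HDAC6 sat together 60 min in pH 7.5 Tris buffer. Inhibition is relative to no-enzyme wells taken as 100%.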

[2] = biological target: T2, HDAC1 enzyme (Homo sapiens, UniProt Q13547); test: HDAC1 enzyme inhibitory assay (HDAC-Glo I/II Assay kit); format: biochemical; details: 1 μM test compound; for inhibition at 1 µM: read-out: HDAC1 inhibitory rate (%) (1 μM)
T2 construct: prepared by transducing full length HDAC1 and HDAC6 genes into Sf-9 insect cells; GST; purchased SignalChem; host or cells: Sf-9 insect cells
T2 sequence (Q13547 whole entry): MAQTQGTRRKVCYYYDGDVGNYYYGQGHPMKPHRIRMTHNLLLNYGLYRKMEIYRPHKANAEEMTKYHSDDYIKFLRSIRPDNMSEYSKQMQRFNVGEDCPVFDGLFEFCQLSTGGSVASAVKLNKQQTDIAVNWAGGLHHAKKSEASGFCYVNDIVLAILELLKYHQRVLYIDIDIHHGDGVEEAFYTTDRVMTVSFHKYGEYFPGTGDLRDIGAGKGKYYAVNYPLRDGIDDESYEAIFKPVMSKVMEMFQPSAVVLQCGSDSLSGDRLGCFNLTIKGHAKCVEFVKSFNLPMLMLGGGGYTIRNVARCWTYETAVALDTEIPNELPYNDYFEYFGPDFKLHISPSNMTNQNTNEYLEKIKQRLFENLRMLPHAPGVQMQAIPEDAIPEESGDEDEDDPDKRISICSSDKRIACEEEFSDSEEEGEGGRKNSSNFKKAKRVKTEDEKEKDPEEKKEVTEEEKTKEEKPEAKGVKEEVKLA
Method in brief: as §1

## O=C(NC[C@H]1COCCN1C(=O)N1CCC(c2ccccc2)C1)c1ccc(-c2noc(C(F)(F)F)n2)cc1 (stereo partly drawn) [Example 293, N-(((3S)-4-((3-phenylpyrrolidin-1-yl)carbonyl)morpholin-3-yl)methyl)-4-(5-(trifluoromethyl)-1,2,4-oxadiazol-3-yl)benzamide]
[1]
  inhibition at 1 µM: 90%
[2]
  inhibition at 1 µM: 14%

## N#Cc1ccc(C(=O)N2CCOC[C@@H]2CNC(=O)c2ccc(-c3noc(C(F)(F)F)n3)cc2)cc1 [Example 45, N-(((3S)-4-(4-cyanobenzoyl)morpholin-3-yl)methyl)-4-(5-(trifluoromethyl)-1,2,4-oxadiazol-3-yl)benzamide]
[1]
  HDAC6 inhibitory rate (%) (1 μM): 99%
[2]
  inhibition at 1 µM: 25%

## O=C(NC[C@H]1COCCN1C(=O)c1ccncc1)c1ccc(-c2noc(C(F)(F)F)n2)cc1 [Example 48, N-(((3S)-4-isonicotinoylmorpholin-3-yl)methyl)-4-(5-(trifluoromethyl)-1,2,4-oxadiazol-3-yl)benzamide]
[1]
  HDAC6 inhibitory rate (%) (1 μM): 98%
[2]
  inhibition at 1 µM: 16%

## O=C(NCC1COCCN1C(=O)c1cccc(Cl)c1)c1ccc(-c2noc(C(F)(F)F)n2)cc1 (centres unmarked) [Example 7, N-((4-(3-chlorobenzoyl)morpholin-3-yl)methyl)-4-(5-(trifluoromethyl)-1,2,4-oxadiazol-3-yl)benzamide]
[1]
  inhibition at 1 µM: 101%
[2]
  inhibition at 1 µM: 24%

## O=C(NCC1COCCN1C(=O)C1CCCCC1)c1ccc(-c2noc(C(F)(F)F)n2)s1 (centres unmarked) [Example 254, N-((4-(cyclohexylcarbonyl)morpholin-3-yl)methyl)-5-(5-(trifluoromethyl)-1,2,4-oxadiazol-3-yl)thiophene-2-carboxamide]
[1]
  inhibition at 1 µM: 98%
[2]
  inhibition at 1 µM: 33%

## O=C(NCC1COCCN1C(=O)c1cccnc1)c1ccc(-c2noc(C(F)(F)F)n2)cc1 (centres unmarked) [Example 13, N-((4-(pyridin-3-ylcarbonyl)morpholin-3-yl)methyl)-4-(5-(trifluoromethyl)-1,2,4-oxadiazol-3-yl)benzamide]
[1]
  inhibition at 1 µM: 97%
[2]
  inhibition at 1 µM: 13%

## Cc1cc(C(=O)N2CCOC[C@@H]2CNC(=O)c2ccc(-c3noc(C(F)(F)F)n3)cc2)ccn1 [Example 49, N-(((3S)-4-(2-methylisonicotinoyl)morpholin-3-yl)methyl)-4-(5-(trifluoromethyl)-1,2,4-oxadiazol-3-yl)benzamide]
[1]
  HDAC6 inhibitory rate (%) (1 μM): 98%
[2]
  inhibition at 1 µM: 13%

## O=C(NCC1CCc2ccccc2N1C(=O)c1ccccc1)c1ccc(-c2noc(C(F)(F)F)n2)cc1 (centres unmarked) [Example 173, N-((1-benzoyl-1,2,3,4-tetrahydroquinolin-2-yl)methyl)-4-(5-(trifluoromethyl)-1,2,4-oxadiazol-3-yl)benzamide]
[1]
  inhibition at 1 µM: 90%
[2]
  inhibition at 1 µM: 16%

## Cc1oncc1C(=O)N1CCOC[C@@H]1CNC(=O)c1ccc(-c2noc(C(F)(F)F)n2)s1 [Example 259, N-(((3S)-4-((5-methyl-1,2-oxazol-4-yl)carbonyl)morpholin-3-yl)methyl)-5-(5-(trifluoromethyl)-1,2,4-oxadiazol-3-yl)thiophene-2-carboxamide]
[1]
  inhibition at 1 µM: 100%
[2]
  inhibition at 1 µM: 25%

## Cn1nc2ccccc2c1C(=O)N1CCOC[C@@H]1CC(=O)Nc1ccc(-c2noc(C(F)(F)F)n2)cc1 [Example 90, 2-((3S)-4-((2-methyl-2H-indazol-3-yl)carbonyl)morpholin-3-yl)-N-(4-(5-(trifluoromethyl)-1,2,4-oxadiazol-3-yl)phenyl)acetamide]
[1]
  inhibition at 1 µM: 97%
[2]
  inhibition at 1 µM: 29%

## N#CC1(C(=O)N2CCOC[C@@H]2CNC(=O)c2ccc(-c3noc(C(F)(F)F)n3)cc2)CC1 [Example 55, N-(((3S)-4-((1-cyanocyclopropyl)carbonyl)morpholin-3-yl)methyl)-4-(5-(trifluoromethyl)-1,2,4-oxadiazol-3-yl)benzamide]
[1]
  inhibition at 1 µM: 96%
[2]
  inhibition at 1 µM: 17%

## Cc1cc(C(=O)N2CCOC[C@@H]2CNC(=O)c2ccc(-c3noc(C(F)(F)F)n3)cc2)n(C)n1 [Example 63, N-(((3S)-4-((1,3-dimethyl-1H-pyrazol-5-yl)carbonyl)morpholin-3-yl)methyl)-4-(5-(trifluoromethyl)-1,2,4-oxadiazol-3-yl)benzamide]
[1]
  inhibition at 1 µM: 97%
[2]
  inhibition at 1 µM: 14%

## O=C(NCC1COCCN1C(=O)N1CCOCC1)c1ccc(-c2noc(C(F)(F)F)n2)cc1 (stereo in doubt) [Example 99, N-(((3S)-4-(morpholin-4-ylcarbonyl)morpholin-3-yl)methyl)-4-(5-(trifluoromethyl)-1,2,4-oxadiazol-3-yl)benzamide]
[1]
  inhibition at 1 µM: 99%
[2]
  inhibition at 1 µM: 9%

## CC(C)(C(=O)N1CCOC[C@@H]1CNC(=O)c1ccc(-c2noc(C(F)(F)F)n2)cn1)c1ccccc1 [Example 206, N-(((3S)-4-(2-methyl-2-phenylpropanoyl)morpholin-3-yl)methyl)-5-(5-(trifluoromethyl)-1,2,4-oxadiazol-3-yl)pyridine-2-carboxamide]
[1]
  inhibition at 1 µM: 98%
[2]
  inhibition at 1 µM: 33%

## O=C(NCC1COCCN1C(=O)C1C2CC3CC(C2)CC1C3)c1ccc(-c2noc(C(F)(F)F)n2)s1 (centres unmarked) [Example 256, N-((4-(adamantan-2-ylcarbonyl)morpholin-3-yl)methyl)-5-(5-(trifluoromethyl)-1,2,4-oxadiazol-3-yl)thiophene-2-carboxamide]
[1]
  inhibition at 1 µM: 99%
[2]
  inhibition at 1 µM: 34%

## Cn1nc2ccccc2c1C(=O)N1CCOCC1CNC(=O)c1ccc(-c2noc(C(F)(F)F)n2)cc1 (centres unmarked) [Example 33, N-((4-((2-methyl-2H-indazol-3-yl)carbonyl)morpholin-3-yl)methyl)-4-(5-(trifluoromethyl)-1,2,4-oxadiazol-3-yl)benzamide]
[1]
  inhibition at 1 µM: 99%
[2]
  inhibition at 1 µM: 47%

## N#Cc1cccc(C(=O)N2CCOCC2CNC(=O)c2ccc(-c3noc(C(F)(F)F)n3)cc2)c1 (centres unmarked) [Example 28, N-((4-(3-cyanobenzoyl)morpholin-3-yl)methyl)-4-(5-(trifluoromethyl)-1,2,4-oxadiazol-3-yl)benzamide]
[1]
  inhibition at 1 µM: 98%
[2]
  inhibition at 1 µM: 14%

## Cc1oncc1C(=O)N1CCOC[C@@H]1CNC(=O)c1ccc(-c2noc(C(F)(F)F)n2)cn1 [Example 193, N-(((3S)-4-((5-methyl-1,2-oxazol-4-yl)carbonyl)morpholin-3-yl)methyl)-5-(5-(trifluoromethyl)-1,2,4-oxadiazol-3-yl)pyridine-2-carboxamide]
[1]
  inhibition at 1 µM: 97%
[2]
  inhibition at 1 µM: 33%

## O=C(NCC1COCCN1C(=O)C1CCNC1=O)c1ccc(-c2noc(C(F)(F)F)n2)cc1 (stereo in doubt) [Example 105, N-(((3S)-4-((2-oxopyrrolidin-3-yl)carbonyl)morpholin-3-yl)methyl)-4-(5-(trifluoromethyl)-1,2,4-oxadiazol-3-yl)benzamide]
[1]
  HDAC6 inhibitory rate (%) (1 μM): 76%
[2]
  HDAC1 inhibitory rate (%) (1 μM): 8%

## O=C(NC[C@H]1COCCN1C(=O)N1CCOCC1CO)c1ccc(-c2noc(C(F)(F)F)n2)cc1 (stereo partly drawn) [Example 311, N-(((3S)-4-((3-(hydroxymethyl)morpholin-4-yl)carbonyl)morpholin-3-yl)methyl)-4-(5-(trifluoromethyl)-1,2,4-oxadiazol-3-yl)benzamide]
[1]
  HDAC6 inhibitory rate (%) (1 μM): 96%
[2]
  HDAC1 inhibitory rate (%) (1 μM): 7%

## O=C(NC[C@H]1COCCN1C(=O)N1CCCC1CCO)c1ccc(-c2noc(C(F)(F)F)n2)cc1 (stereo partly drawn) [Example 305, N-(((3S)-4-((2-(2-hydroxyethyl)pyrrolidin-1-yl)carbonyl)morpholin-3-yl)methyl)-4-(5-(trifluoromethyl)-1,2,4-oxadiazol-3-yl)benzamide]
[1]
  inhibition at 1 µM: 99%
[2]
  inhibition at 1 µM: 5%

## O=C(NCC1COCCN1C(=O)c1cc2ccccc2o1)c1ccc(-c2noc(C(F)(F)F)n2)cc1 (centres unmarked) [Example 19, N-((4-(1-benzofuran-2-ylcarbonyl)morpholin-3-yl)methyl)-4-(5-(trifluoromethyl)-1,2,4-oxadiazol-3-yl)benzamide]
[1]
  inhibition at 1 µM: 98%
[2]
  inhibition at 1 µM: 24%
